Data reported in patent publication US8298176B2, “Flow-induced delivery from a drug mass” (priority 2006, dated 2012).

Tests used:
[1] = cited from earlier work
[2] = Dissolution of gacyclidine base pellets in a continuous flow reactor (elution with Ringer's solution containing hydrochloric acid); assay type: physicochemical; conditions: for pH of the eluted drug solution: room temperature (23±2° C.)
Method: A drug chamber similar to the one illustrated in FIGS. 2 and 4 was loaded with 11 pellets of gacyclidine base having a combined mass of 18 mg. This drug-loaded chamber was eluted at a flow rate of 20 μL/hr at room temperature (23±2° C.) using a MiniMed 508 syringe pump (available from Medtronics MiniMed of Northridge, Calif.). The syringe was loaded with 3 mL of Ringer's solution containing 0.05 to 3 mM hydrochloric acid. The eluted volume was collected in PTFE tubing attached to the pump drug capsule assembly, after a 3-D antibacterial filter. The pH of this solution was determined by use of a pH meter equipped with a Calomel electrode. Drug concentration was determined by HPLC.
The highest pH of the eluted drug solution (5.9) was obtained at 0.05 mM hydrochloric acid, and the lowest pH of the eluted drug solution (5.6) was obtained at 3 mM hydrochloric acid. These pH values indicate quantitative conversion of the hydrochloric acid to the drug salt and are consistent with the pH expected for solutions of the hydrochloride salt.

[3] = body temperature / in the presence of water; cited from earlier work

| Compound | water solubility (in words) [1] | correlation in gacyclidine concentration per hydrochloric acid concentration used for elution ([2]; 0.05 to 3 mM HCl in Ringer's solution, 20 μL/hr, linear fit of FIG. 26, drug by HPLC) | pH of the eluted drug solution ([2]; eluted with Ringer's solution containing 0.05 mM hydrochloric acid, 20 μL/hr, highest pH) | pH of the eluted drug solution ([2]; eluted with Ringer's solution containing 3 mM hydrochloric acid, 20 μL/hr, lowest pH) | intercept at zero concentration of hydrochloric acid ([2]; linear fit of FIG. 26, gacyclidine concentration in eluate) [mM] | stability (in words) [3] |
| --- | --- | --- | --- | --- | --- | --- |
| CCN(CC)C(=O)SC[C@H](NC(=O)CC[C@H](N)C(=O)O)C(=O)NCC(=O)O [carbamathione] | sparingly soluble in water | – | – | – | – | – |
| CC1CCCCC1(c1cccs1)N1CCCCC1 (stereo not shown) [gacyclidine] | sparingly soluble in water | 0.976±0.049 | 5.9 | 5.6 | 0.0014 ± 0.0061 | much more stable than its acidic form in the presence of water |
| C[C@H]1CCCC[C@@]1(c1cccs1)N1CCCCC1.Cl [hydrochloride salt of gacyclidine] | highly water soluble | – | – | – | – | unstable at body temperature |
| CC1(C)O[C@@H]2C[C@H]3[C@@H]4CCC5=CC(=O)C=C[C@]5(C)[C@@]4(F)[C@@H](O)C[C@]3(C)[C@]2(C(=O)CO)O1 [triamcinolone acetonide] | very low water solubility | – | – | – | – | – |
